Key:
[1] = target: Ribosomal protein S6 kinase alpha-2 (Homo sapiens) (UniProt Q15349); details: Compound concentration 1000.0 nM
[2] = target: Death-associated protein kinase 1 (Homo sapiens) (UniProt P53355); details: Compound concentration 1000.0 nM
[3] = target: 5-hydroxytryptamine receptor 1E (Homo sapiens) (UniProt P28566); details: Compound concentration 10.0 uM
[4] = target: MAP kinase-activated protein kinase 2 (Homo sapiens) (UniProt P49137); details: Compound concentration 1000.0 nM
[5] = target: Serine/threonine-protein kinase BRSK2 (Homo sapiens) (UniProt Q8IWQ3); details: Compound concentration 1000.0 nM
[6] = target: Sigma intracellular receptor 2 (Homo sapiens) (UniProt Q5BJF2); details: Compound concentration 10.0 uM
[7] = target: Serine/threonine-protein kinase RIO1 (Homo sapiens) (UniProt Q9BRS2); details: Compound concentration 1000.0 nM
[8] = target: Ribosomal protein S6 kinase alpha-6 (Homo sapiens) (UniProt Q9UK32); details: Compound concentration 1000.0 nM
[9] = target: Cyclin-dependent kinase 4 (Homo sapiens) (UniProt P11802); details: Compound concentration 1000.0 nM
[10] = target: Cyclin-dependent kinase 11B (Homo sapiens) (UniProt P21127); details: Compound concentration 1000.0 nM
[11] = target: Kappa-type opioid receptor (Homo sapiens) (UniProt P41145); details: Compound concentration 10.0 uM
[12] = target: Serine/threonine-protein kinase TAO1 (Homo sapiens) (UniProt Q7L7X3); details: Compound concentration 1000.0 nM
[13] = target: Serine/threonine-protein kinase Chk2 (Homo sapiens) (UniProt O96017); details: Compound concentration 1000.0 nM
[14] = test system: Tyrosine-protein kinase ABL1 (Homo sapiens), P00519 [F317L]; details: Compound concentration 1000.0 nM
[15] = target: GABA-A receptor; anion channel (Rattus norvegicus) (UniProt O09028+P15431+P18506+P18508+P19969+P20236+P23574+P23576+P28471+P28473+P30191+P62813+P63079+P63138+Q91ZM7+Q9ES14); details: Compound concentration 10.0 uM
[16] = target: Tyrosine-protein kinase JAK1 (Homo sapiens) (UniProt P23458); details: Compound concentration 1000.0 nM
[17] = target: Tyrosine-protein kinase Tec (Homo sapiens) (UniProt P42680); details: Compound concentration 1000.0 nM
[18] = target: Activin receptor type-1B (Homo sapiens) (UniProt P36896); details: Compound concentration 1000.0 nM
[19] = target: Ribosomal protein S6 kinase alpha-2 (Homo sapiens) (UniProt Q15349); details: Compound concentration 1000.0 nM; remark: listed apart in the source
[20] = target: Tyrosine-protein kinase receptor TYRO3 (Homo sapiens) (UniProt Q06418); details: Compound concentration 1000.0 nM
[21] = target: Serine/threonine-protein kinase LATS1 (Homo sapiens) (UniProt O95835); details: Compound concentration 1000.0 nM
[22] = target: Serine/threonine-protein kinase PAK 4 (Homo sapiens) (UniProt O96013); details: Compound concentration 1000.0 nM
[23] = target: Serine/threonine-protein kinase pim-3 (Homo sapiens) (UniProt Q86V86); details: Compound concentration 1000.0 nM
[24] = target: Mast/stem cell growth factor receptor Kit (Homo sapiens) (UniProt P10721); details: Compound concentration 1000.0 nM
[25] = target: Mitogen-activated protein kinase 8 (Homo sapiens) (UniProt P45983); details: Compound concentration 1000.0 nM
[26] = target: Alpha-1D adrenergic receptor (Homo sapiens) (UniProt P25100); details: Compound concentration 10.0 uM
[27] = target: Serine/threonine-protein kinase Nek2 (Homo sapiens) (UniProt P51955); details: Compound concentration 1000.0 nM
[28] = target: SRSF protein kinase 1 (Homo sapiens) (UniProt Q96SB4); details: Compound concentration 1000.0 nM
[29] = target: 3-phosphoinositide-dependent protein kinase 1 (Homo sapiens) (UniProt O15530); details: Compound concentration 1000.0 nM
[30] = target: Tyrosine-protein kinase Mer (Homo sapiens) (UniProt Q12866); details: Compound concentration 1000.0 nM
[31] = target: Protein kinase C iota type (Homo sapiens) (UniProt P41743); details: Compound concentration 1000.0 nM
[32] = target: Serine/threonine-protein kinase 36 (Homo sapiens) (UniProt Q9NRP7); details: Compound concentration 1000.0 nM
[33] = test system: Receptor-type tyrosine-protein kinase FLT3 (Homo sapiens), P36888 [UNDEFINED MUTATION]; details: Compound concentration 1000.0 nM
[34] = target: Receptor tyrosine-protein kinase erbB-4 (Homo sapiens) (UniProt Q15303); details: Compound concentration 1000.0 nM
[35] = target: Ribosomal protein S6 kinase alpha-1 (Homo sapiens) (UniProt Q15418); details: Compound concentration 1000.0 nM
[36] = target: T1, Alpha-2A adrenergic receptor (Homo sapiens) (UniProt P08913); details: Compound concentration 10.0 uM
T1 sequence (whole entry): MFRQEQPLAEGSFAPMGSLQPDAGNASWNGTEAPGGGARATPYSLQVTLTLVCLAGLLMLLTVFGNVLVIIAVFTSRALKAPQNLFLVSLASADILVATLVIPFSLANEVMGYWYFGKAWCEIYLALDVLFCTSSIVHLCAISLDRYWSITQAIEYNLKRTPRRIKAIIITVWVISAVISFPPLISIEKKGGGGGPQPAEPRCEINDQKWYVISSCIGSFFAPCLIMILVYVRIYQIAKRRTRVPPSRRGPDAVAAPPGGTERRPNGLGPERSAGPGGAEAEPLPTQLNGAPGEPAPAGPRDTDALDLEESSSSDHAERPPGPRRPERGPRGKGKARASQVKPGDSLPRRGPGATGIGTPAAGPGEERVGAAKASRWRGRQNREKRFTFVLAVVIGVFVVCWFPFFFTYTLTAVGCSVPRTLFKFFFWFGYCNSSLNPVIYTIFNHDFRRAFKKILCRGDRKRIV

[37] = test system: Phosphatidylinositol 4,5-bisphosphate 3-kinase catalytic subunit alpha isoform (Homo sapiens), P42336 [E545K]; details: Compound concentration 1000.0 nM
[38] = target: Ephrin type-B receptor 3 (Homo sapiens) (UniProt P54753); details: Compound concentration 1000.0 nM

Sequence of Ribosomal protein S6 kinase alpha-2 (Homo sapiens) (Q15349 whole entry): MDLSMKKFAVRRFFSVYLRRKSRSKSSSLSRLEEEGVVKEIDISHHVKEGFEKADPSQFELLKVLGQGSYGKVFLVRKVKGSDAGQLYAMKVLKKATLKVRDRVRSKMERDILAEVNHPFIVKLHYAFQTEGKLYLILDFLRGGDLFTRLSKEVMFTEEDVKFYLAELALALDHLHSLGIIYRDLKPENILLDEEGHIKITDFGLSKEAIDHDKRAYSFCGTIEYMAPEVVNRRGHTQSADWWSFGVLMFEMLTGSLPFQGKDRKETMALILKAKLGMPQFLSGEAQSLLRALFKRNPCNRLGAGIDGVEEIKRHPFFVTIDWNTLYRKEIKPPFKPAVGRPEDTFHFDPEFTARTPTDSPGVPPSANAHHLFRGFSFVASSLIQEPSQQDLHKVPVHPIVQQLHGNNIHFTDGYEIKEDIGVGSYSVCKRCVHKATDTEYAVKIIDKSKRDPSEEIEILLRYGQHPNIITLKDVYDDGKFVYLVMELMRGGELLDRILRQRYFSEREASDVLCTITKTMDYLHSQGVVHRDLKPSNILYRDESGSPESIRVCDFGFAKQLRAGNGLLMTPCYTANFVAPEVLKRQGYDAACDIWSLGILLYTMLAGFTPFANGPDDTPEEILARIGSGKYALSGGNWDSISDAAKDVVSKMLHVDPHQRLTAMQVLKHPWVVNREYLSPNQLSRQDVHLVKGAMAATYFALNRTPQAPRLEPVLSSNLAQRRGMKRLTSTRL
Sequence of Tyrosine-protein kinase receptor TYRO3 (Homo sapiens) (Q06418 whole entry): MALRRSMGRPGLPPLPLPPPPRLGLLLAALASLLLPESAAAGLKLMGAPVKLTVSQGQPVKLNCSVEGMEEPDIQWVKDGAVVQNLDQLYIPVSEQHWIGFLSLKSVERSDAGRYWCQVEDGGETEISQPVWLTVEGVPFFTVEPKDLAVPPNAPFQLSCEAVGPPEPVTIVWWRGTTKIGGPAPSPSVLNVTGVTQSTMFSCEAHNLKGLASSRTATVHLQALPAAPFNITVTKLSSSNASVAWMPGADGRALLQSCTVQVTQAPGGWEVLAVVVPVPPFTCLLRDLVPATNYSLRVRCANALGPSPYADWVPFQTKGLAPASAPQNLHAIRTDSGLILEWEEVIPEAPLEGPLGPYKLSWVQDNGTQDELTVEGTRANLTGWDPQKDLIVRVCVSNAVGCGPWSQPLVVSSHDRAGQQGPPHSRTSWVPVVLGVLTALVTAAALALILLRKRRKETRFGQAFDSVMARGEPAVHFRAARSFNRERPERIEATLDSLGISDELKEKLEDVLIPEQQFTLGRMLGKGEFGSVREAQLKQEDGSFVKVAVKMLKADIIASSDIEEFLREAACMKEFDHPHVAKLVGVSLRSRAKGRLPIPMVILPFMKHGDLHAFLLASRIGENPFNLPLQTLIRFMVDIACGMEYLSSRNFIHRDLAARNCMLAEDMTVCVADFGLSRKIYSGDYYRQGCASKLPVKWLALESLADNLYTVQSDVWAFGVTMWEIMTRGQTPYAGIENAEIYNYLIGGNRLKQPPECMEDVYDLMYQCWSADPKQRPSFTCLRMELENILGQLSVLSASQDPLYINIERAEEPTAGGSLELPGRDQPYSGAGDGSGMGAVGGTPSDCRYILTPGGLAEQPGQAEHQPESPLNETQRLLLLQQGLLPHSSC
Sequence of Mast/stem cell growth factor receptor Kit (Homo sapiens) (P10721 whole entry): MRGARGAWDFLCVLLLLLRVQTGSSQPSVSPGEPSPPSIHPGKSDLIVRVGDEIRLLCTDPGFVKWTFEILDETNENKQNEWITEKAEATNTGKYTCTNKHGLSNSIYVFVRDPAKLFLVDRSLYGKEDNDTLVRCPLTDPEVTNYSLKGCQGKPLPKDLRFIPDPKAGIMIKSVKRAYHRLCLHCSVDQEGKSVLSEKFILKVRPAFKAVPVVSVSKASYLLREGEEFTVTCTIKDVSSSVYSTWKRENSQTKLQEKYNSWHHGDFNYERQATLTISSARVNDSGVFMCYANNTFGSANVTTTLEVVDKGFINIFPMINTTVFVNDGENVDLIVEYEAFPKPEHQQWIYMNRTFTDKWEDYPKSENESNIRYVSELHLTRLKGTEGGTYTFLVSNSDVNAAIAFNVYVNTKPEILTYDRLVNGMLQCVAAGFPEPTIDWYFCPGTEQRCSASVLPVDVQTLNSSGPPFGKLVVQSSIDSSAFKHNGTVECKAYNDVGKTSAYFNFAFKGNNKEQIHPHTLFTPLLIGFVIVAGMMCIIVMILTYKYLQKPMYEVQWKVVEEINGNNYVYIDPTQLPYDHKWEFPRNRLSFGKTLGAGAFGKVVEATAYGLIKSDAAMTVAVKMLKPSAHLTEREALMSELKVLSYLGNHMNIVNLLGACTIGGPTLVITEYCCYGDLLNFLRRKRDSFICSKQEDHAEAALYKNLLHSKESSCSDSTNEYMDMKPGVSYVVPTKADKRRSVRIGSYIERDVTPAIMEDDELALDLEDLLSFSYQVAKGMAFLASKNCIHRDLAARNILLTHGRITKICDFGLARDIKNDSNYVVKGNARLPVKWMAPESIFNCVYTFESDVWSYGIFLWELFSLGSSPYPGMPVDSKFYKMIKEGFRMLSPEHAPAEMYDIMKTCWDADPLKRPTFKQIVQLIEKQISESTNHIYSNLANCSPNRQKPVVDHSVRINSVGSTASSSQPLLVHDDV
Sequence of Ribosomal protein S6 kinase alpha-6 (Homo sapiens) (Q9UK32 whole entry): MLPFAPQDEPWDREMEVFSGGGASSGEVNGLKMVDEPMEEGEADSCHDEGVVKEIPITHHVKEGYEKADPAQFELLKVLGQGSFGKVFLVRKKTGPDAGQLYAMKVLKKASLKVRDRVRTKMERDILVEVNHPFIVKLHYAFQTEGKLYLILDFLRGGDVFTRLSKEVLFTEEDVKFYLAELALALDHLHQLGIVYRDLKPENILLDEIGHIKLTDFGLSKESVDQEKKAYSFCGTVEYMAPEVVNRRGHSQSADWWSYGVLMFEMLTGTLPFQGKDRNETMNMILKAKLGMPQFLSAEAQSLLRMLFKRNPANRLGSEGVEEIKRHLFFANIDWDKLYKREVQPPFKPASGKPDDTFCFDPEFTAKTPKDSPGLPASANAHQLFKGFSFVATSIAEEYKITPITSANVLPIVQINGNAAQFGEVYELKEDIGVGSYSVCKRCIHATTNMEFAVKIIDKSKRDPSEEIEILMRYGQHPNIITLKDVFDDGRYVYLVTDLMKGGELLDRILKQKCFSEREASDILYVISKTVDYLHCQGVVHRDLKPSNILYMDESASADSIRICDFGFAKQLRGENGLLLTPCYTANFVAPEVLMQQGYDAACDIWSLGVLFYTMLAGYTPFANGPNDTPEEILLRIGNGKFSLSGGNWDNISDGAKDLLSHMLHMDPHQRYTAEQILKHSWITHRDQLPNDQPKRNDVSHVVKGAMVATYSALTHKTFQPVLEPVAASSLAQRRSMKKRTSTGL
Sequence of Serine/threonine-protein kinase Nek2 (Homo sapiens) (P51955 whole entry): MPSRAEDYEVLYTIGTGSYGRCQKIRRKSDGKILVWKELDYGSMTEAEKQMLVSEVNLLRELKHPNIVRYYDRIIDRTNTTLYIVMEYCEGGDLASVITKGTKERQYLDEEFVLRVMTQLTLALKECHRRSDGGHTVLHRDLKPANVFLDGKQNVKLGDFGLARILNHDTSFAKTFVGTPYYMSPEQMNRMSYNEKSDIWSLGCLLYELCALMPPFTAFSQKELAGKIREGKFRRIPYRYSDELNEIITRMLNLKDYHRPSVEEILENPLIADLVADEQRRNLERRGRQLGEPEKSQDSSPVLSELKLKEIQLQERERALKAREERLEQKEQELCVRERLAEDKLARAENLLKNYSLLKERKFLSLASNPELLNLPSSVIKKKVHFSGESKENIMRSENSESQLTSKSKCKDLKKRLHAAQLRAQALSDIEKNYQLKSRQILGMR
Sequence of Tyrosine-protein kinase ABL1 (Homo sapiens), P00519 [F317L] (P00519 whole entry F317L): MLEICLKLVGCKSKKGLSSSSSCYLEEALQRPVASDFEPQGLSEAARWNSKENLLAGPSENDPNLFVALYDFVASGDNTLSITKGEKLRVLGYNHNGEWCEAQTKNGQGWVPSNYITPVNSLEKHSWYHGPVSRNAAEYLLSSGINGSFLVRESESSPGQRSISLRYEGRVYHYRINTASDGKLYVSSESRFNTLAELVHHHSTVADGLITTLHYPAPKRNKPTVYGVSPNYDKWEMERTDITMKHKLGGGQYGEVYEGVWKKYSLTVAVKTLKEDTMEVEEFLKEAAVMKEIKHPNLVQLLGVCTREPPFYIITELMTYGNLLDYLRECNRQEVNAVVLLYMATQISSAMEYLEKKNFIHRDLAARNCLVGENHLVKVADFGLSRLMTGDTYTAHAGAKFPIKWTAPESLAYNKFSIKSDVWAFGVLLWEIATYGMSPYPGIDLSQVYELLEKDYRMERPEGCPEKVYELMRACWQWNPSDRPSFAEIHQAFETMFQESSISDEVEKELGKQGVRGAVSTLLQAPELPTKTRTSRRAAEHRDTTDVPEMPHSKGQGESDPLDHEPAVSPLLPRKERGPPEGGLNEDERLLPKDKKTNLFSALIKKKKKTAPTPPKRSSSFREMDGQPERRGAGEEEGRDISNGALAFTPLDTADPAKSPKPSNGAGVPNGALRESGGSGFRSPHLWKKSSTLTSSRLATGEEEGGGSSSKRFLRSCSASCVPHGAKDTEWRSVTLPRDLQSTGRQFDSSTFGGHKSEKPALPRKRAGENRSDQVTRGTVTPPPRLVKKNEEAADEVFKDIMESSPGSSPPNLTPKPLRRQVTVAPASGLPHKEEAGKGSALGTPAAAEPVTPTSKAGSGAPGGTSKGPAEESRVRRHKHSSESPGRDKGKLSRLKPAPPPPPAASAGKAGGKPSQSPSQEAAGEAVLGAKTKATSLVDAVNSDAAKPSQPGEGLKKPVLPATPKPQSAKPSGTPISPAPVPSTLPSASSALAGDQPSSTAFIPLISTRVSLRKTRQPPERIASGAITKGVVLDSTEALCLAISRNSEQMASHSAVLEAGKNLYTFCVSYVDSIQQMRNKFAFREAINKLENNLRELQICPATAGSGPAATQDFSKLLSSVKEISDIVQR

SMILES | residual activity [1] [%] | residual activity [2] [%] | inhibition [3] [%] | residual activity [4] [%] | residual activity [5] [%] | inhibition [6] [%] | residual activity [7] [%] | residual activity [8] [%] | residual activity [9] [%] | residual activity [10] [%] | inhibition [11] [%] | residual activity [12] [%] | residual activity [13] [%] | residual activity [14] [%] | inhibition [15] [%] | residual activity [16] [%] | residual activity [17] [%] | residual activity [18] [%] | residual activity [19] [%] | residual activity [20] [%] | also measured
C[C@@H](c1cccc(C#N)c1)n1cc(Cl)cc(C(N)=O)c1=N [(S)-9s] | 100 | 100 | -1.72 | 97 | 95 | 20.7 | 86 | 82 | 96 | 86 | 1.2 | 89 | 100 | 85 | 8.14 | 93 | 88 | 100 | 93 | 68 | residual activity [21]: 69%; residual activity [22]: 100%; residual activity [23]: 100%; residual activity [24]: 78%; residual activity [25]: 75%; inhibition [26]: 60.5%; residual activity [27]: 100%; residual activity [28]: 100%; residual activity [29]: 100%; residual activity [30]: 82%; residual activity [31]: 93%; residual activity [32]: 94%; residual activity [33]: 96%; residual activity [34]: 100%; residual activity [35]: 100%; inhibition [36]: -1.01%; residual activity [37]: 88%; residual activity [38]: 85%
C[C@H](c1cccc(C#N)c1)n1cc(Cl)cc(C(N)=O)c1=N [(R)-9s] | 62 | 100 | -3.17 | 100 | 85 | 53.6 | 100 | 91 | 97 | 86 | -0.22 | 90 | 100 | 75 | 1.07 | 92 | 100 | 100 | 97 | 33 | residual activity [21]: 74%; residual activity [22]: 100%; residual activity [23]: 100%; residual activity [24]: 98%; residual activity [25]: 72%; inhibition [26]: 93.3%; residual activity [27]: 100%; residual activity [28]: 96%; residual activity [29]: 100%; residual activity [30]: 96%; residual activity [31]: 100%; residual activity [32]: 75%; residual activity [33]: 100%; residual activity [34]: 100%; residual activity [35]: 100%; inhibition [36]: 4.64%; residual activity [37]: 82%; residual activity [38]: 78%

— ChEMBL document CHEMBL4507301 (2021)
